Reference: ChEMBL document CHEMBL5113506, “Discovery of novel human lactate dehydrogenase inhibitors: Structure-based virtual screening studies and biological assessment” (Eur J Med Chem, 2022)
Activity calls are given as the source filed them. No cut-off for these calls is given here.

Columns and labels:
Medulloblastoma cell [1] = experiment: Antiproliferation activity against human Med1 assessed as reduction in cell viability at […] after 24 hrs by Trypan blue exclusion assay; assay type: functional, cell-based
Medulloblastoma cell [2] = experiment: Antiproliferation activity against human Med1 assessed as reduction in cell viability at 100 uM after 24 hrs by Trypan blue exclusion assay; assay type: functional, cell-based
Medulloblastoma cell [3] = experiment: Antiproliferation activity against human Med1 assessed as reduction in cell viability at 1 mM after 24 hrs by Trypan blue exclusion assay; assay type: functional, cell-based
[4] = Antiproliferation activity against human Med1 assessed as reduction in cell viability after 24 hrs by Trypan blue exclusion assay; assay type: functional, cell-based; details: Medulloblastoma cell
[5] = target: T1, L-lactate dehydrogenase A chain (Homo sapiens, UniProt P00338); experiment: Inhibition of LDHA in human Med1 cells using pyruvate as substrate incubated 10 mins by spectrophotometric analysis; assay type: cell-based, Medulloblastoma cell
HCT-116 [6] = experiment: Antiproliferation activity against human HCT-116 cells assessed as reduction in cell viability after 24 hrs by Trypan blue exclusion assay; assay type: functional, cell-based
A549 = experiment: Antiproliferation activity against human A549 cells assessed as reduction in cell viability after 24 hrs by Trypan blue exclusion assay; assay type: functional, cell-based
HCT-116 [7] = experiment: Induction of […] in human HCT-116 cells assessed as increase in LC3B-I lipidation protein expression level after 48 hrs in presence of rotenone by Western blot analysis; assay type: functional, cell-based
HCT-116 [8] = experiment: Antiproliferation activity against human HCT-116 cells assessed as reduction in cell viability after 24 hrs in presence of rotenone by Trypan blue exclusion assay; assay type: functional, cell-based
HCT-116 [9] = experiment: Induction of autophagy in human HCT-116 cells assessed as increase in LC3B-I lipidation protein expression level at 80 to 320 uM after 48 hrs by Western blot analysis; assay type: functional, cell-based; details: dose 80-320 µM
HCT-116 [10] = experiment: Induction of apoptosis in human HCT-116 cells assessed as increase in cleaved PARP protein expression level after 48 hrs in presence of rotenone by Western blot analysis; assay type: functional, cell-based
SW-620 = experiment: Antiproliferation activity against human SW-620 cells assessed as reduction in cell viability after 24 hrs by Trypan blue exclusion assay; assay type: functional, cell-based
HCT-116 [11] = experiment: Induction of apoptosis in human HCT-116 cells assessed as increase in cleaved PARP protein expression level at 80 to 320 uM after 48 hrs by Western blot analysis; assay type: functional, cell-based; details: dose 80-320 µM
[12] = target: T1, L-lactate dehydrogenase A chain; experiment: Inhibition of LDHA in human Med1 cells assessed as reduction in lactate production by measuring ECAR using pyruvate as substrate incubated 6 hrs by seahorse extracellular flux analysis; assay type: cell-based; details: Medulloblastoma cell
PANC-1 = experiment: Antiproliferation activity against human PANC-1 cells assessed as reduction in cell viability after 24 hrs by Trypan blue exclusion assay; assay type: functional, cell-based
[13] = target: L-lactate dehydrogenase B chain (Mus musculus, UniProt P16125); experiment: Inhibition of mouse LDHB using sodium pyruvate as substrate
[14] = target: T1, L-lactate dehydrogenase A chain; experiment: Inhibition of LDHA in human liver using pyruvate as substrate incubated for 3 mins by fluorescence assay; assay type: tissue-based

L-lactate dehydrogenase B chain, sequence (P16125 whole entry): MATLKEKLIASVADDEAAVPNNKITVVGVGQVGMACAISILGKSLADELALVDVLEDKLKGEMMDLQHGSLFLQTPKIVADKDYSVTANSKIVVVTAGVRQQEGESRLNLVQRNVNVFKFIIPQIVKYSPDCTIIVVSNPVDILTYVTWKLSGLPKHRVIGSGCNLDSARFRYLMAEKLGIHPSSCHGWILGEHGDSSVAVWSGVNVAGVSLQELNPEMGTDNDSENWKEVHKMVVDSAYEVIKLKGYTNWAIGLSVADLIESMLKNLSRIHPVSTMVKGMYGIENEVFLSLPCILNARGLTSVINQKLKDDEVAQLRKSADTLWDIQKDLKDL

Structure (SMILES) | Activity (Medulloblastoma cell [1]) | Activity (Medulloblastoma cell [3]) | IC50 [4] [µM] | further results
Cc1nn(-c2ncc(NC(=O)C3(c4ccccc4)CCOCC3)cn2)c(C)c1C | Active | Active | 0.0298 | Activity (Medulloblastoma cell [2]): Active
Cc1cc(C(=O)N(CCc2cccs2)C2CCOCC2)no1 | Active | Active | 1.16 | –
CSc1sc(C(=O)O)cc1-c1nc(-c2ccc(C)cc2)cs1 | Active | Active | 0.964 | –
O=c1cc2c(nn1CC1CCN(C3=NS(=O)(=O)c4ccccc43)CC1)CCC2 | Active | Active | 0.0818 | IC50 [5]: 0.012 µM; Activity (HCT-116 [6]): Active; Activity (A549): Active; Activity (Medulloblastoma cell [2]): Active; Activity (HCT-116 [7]): Active; Activity (HCT-116 [8]): Active; Activity (HCT-116 [9]): Active; Activity (HCT-116 [10]): Active; Activity (SW-620): Active; Activity (HCT-116 [11]): Active; inhibition [12]: Active; Activity (PANC-1): Active
NC(=O)C(=O)O [SODIUM OXAMATE] | – | – | 15.9 | –
Cc1cc2c(C(C)C)c(O)c(O)c(C=O)c2c(O)c1-c1c(C)cc2c(C(C)C)c(O)c(O)c(C=O)c2c1O [GOSSYPOL] | – | – | – | Ki [13]: 1.4 µM
CSc1cccc(-n2c(=O)n(Cc3ccc(C(=O)O)cc3)c(=O)c3[nH]cnc32)c1 | Active | – | 8.31 | –
O=C(NCc1nn(C2CCCC2)c(=O)c2ccccc12)Nc1ccccc1F | Active | Active | 8.46 | –
Cn1nc(C2CCN(C(=O)NCc3ccccc3)CC2)n(-c2ccccc2)c1=O | Active | Active | 1.51 | –
O=C(O)c1nnn(-c2ccc(F)cc2F)c1-c1ccccc1 | Active | Active | 1.29 | –
O=c1cc2c(=O)oc3cc(O)c(O)oc3c2c(O)c1O | – | – | – | Ki [14]: 5.46 µM
Cc1ccc(-c2c(C)c(C(=O)O)nn2-c2ccc(Cl)c(Cl)c2)cc1C | Active | Active | 1.14 | –
